Legend:
[1] = biological target: T1, HSD17B13 enzyme (Homo sapiens, UniProt Q7Z5P4); experiment: LC/MS estrone detection assay (conversion of estradiol to estrone by HSD17B13); type: biochemical; conditions: substrate 4 μM estradiol, 6 mM NAD+, 30 nM HSD17B13 enzyme, 2 hours at 26.5° C
T1 construct: His; made in house; host or cells: E. coli
T1 sequence (Q7Z5P4 20-300): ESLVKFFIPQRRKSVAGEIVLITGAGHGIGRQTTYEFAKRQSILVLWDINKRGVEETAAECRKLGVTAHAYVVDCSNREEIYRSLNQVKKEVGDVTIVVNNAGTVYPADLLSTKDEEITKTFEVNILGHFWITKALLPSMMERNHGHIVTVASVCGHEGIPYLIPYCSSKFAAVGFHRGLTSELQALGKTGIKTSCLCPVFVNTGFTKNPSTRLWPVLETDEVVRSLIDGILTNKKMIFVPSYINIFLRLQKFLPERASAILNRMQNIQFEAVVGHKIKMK
Procedure: The liquid chromatography/mass spectrometry (LC/MS) estrone detection assay monitors the conversion of estradiol to estrone by HSD17B13. This assay was performed in a 96 wp format (Eppendorf deep well Plate 96/500) in an 80 μl reaction volume containing: 4 μM estradiol (E2; Cayman; Ser. No. 10/006,315); 6 mM NAD^+ (Sigma; #N0623), and 30 nM HSD17B13 enzyme (in-house; E. coli expressed His-tagged, purified, soluble protein), in a buffer containing 1M potassium phosphate buffer pH 7.4 and 0.5% vehicle (DMSO). Reactions were incubated for 2 hours at 26.5° C., and estradiol (E2) conversion to estrone (E1) was quantitated by LC-MS/MS based analyte detection for E1 using LCMS grade reagents. Reactions were terminated by the addition of two volumes of acetonitrile (MeCN; LCMS grade; CAS #75/05/8) containing deuterated (D4)-E1 as internal standard (Clear Synth; #CS-T-54273; 500 ng/mL final concentration). Samples were applied to pre-prepared Bond Elut-C18 extraction cartridges (3 mL; Agilent; Ser. No. 12/102,028), and washed and eluted in MeCN. Eluates were dried under nitrogen and re-suspended in 60% methanol (LCMS grade methanol; CAS #67/56/1) before submission for analysis. Standard curves for E1 were included for quantification. Analysis of samples was undertaken on a XBridge BEH C18 column (Waters; #186003033) using 0.1% Diethyl Amine in MeCN (mobile phase A; DEA CAS #109-89-7) and 0.1% Diethyl Amine in milli-Q water (mobile phase B) in a 3 min gradient up to 25% B. Analytes were detected in negative mode using MRM analysis, with E2 having a RT of 1.85 min and E1 having a RT of 2 min. Activity of the enzyme in the absence of NAD^+, was subtracted from samples to yield values for specific enzyme activity. Enzyme activity in the presence of test samples was expressed as a percentage of the uninhibited enzyme activity, and plotted versus inhibitor concentration. Non-linear regression was performed using the Morrison equation (see below) for tight binding inhibitors on GraphPad Prism software (GraphPad Software, La Jolla, Calif.). All assessments were undertaken in duplicate evaluations which were pooled during the extraction process and subsequently injected as duplicates for LC-MS/MS analysis. Y=Vo*(1−((((Et+X+Q)−(((Et+X+Q)^2)−4*Et*X)^0.5))/(2*Et))) Morrison equation:
Y=Activity in the presence of inhibitor; Vo=Activity in absence of inhibitor; Et=Total enzyme concentration; X=inhibitor concentration; and Q=(Ki*(1+(S/Km))), where Ki is the inhibition constant, Km is the Michaelis constant, and S is the substrate concentration.

[2] = biological target: T1, HSD17B13 enzyme; experiment: NADH detection assay (fluorescence based Leukotriene B3 (LTB3) assay) for HSD17B13 activity; type: biochemical; conditions: substrate 25 μM LTB3, 3 mM NAD+, 125 nM HSD17B13 enzyme, 1 hour at 26.5° C
Procedure: The fluorescence based Leukotriene B3 (LTB3) assay monitors the fluorescence of NADH, which is generated from NAD+ during the dehydrogenation of the substrate LTB3. The reactions were performed in a 384-well plates (Greiner; #655076) in a 20 μl reaction volume containing the following reagents (final concentrations): 25 μM LTB3 (Cayman; #20109); 3 mM NAD^+ (Sigma; #N0623); 125 nM HSD17B13 enzyme (in-house; E. coli expressed His-tagged, purified, soluble protein); 1 M potassium phosphate buffer, pH 7.4; and 1% DMSO. Reactions were initiated by co-addition of NAD+ and enzyme, and monitored for 1 hour at 26.5° C. Generation of NADH was measured as the fluorescence signal (Excitation at 340 nm and Emission at 445 nm) at 1 hour minus the baseline fluorescence at t=0. Fluorescence signals in the absence of LTB3 (negative control values), were subtracted from all values so that the results reflected substrate-dependent production of NADH. NADH standards were included to allow the conversion of relative fluorescence units into rates of enzyme activity. Enzyme activity in the presence of test compounds was expressed as a percentage of the uninhibited enzyme activity, and plotted versus inhibitor concentration. Non-linear regression was performed using a four-parameter logistic model and Microsoft Excel Solver® software. Ten concentrations of inhibitor were tested in duplicate (in the range of 30 μM-2.5 nM). Two independent concentration response assays were performed and the geometric mean is reported, =/−the SEM.

SMILES | IC50 [1] | IC50 [2]
COc1ccccc1CCNC(=O)c1sccc1NC(=O)c1ccc(C(F)(F)C(=O)O)c(F)c1 [Example 27, 2,2-difluoro-2-(2-fluoro-4-((2-((2-methoxyphenethyl)carbamoyl)thiophen-3-yl)carbamoyl)phenyl)acetic acid] | > 10000 nM | > 10000 nM
O=C(Nc1ccsc1C(=O)NCCc1ccccc1F)c1ccc(O)c(Cl)c1 [Example 9, 3-(3-chloro-4-hydroxybenzamido)-N-(2-fluorophenethyl)thiophene-2-carboxamide] | ≤ 100 nM | ≤ 1000 nM
CCNC(=O)c1sccc1NC(=O)c1ccc(O)c(Cl)c1 [Example 5, 3-(3-chloro-4-hydroxybenzamido)-N-ethylthiophene-2-carboxamide] | 100 to 1000 nM | ≤ 1000 nM
COc1ccncc1CCNC(=O)c1sccc1NC(=O)c1ccc(O)c(Cl)c1 [Example 7, 3-(3-chloro-4-hydroxybenzamido)-N-(2-(4-methoxypyridin-3-yl)ethyl)thiophene-2-carboxamide] | 100 to 1000 nM | ≤ 1000 nM
COc1ccccc1CCNC(=O)c1sccc1NC(=O)c1ccc(S(N)(=O)=O)c(Cl)c1 [Example 26, 3-(3-chloro-4-sulfamoylbenzamido)-N-(2-methoxyphenethyl)thiophene-2-carboxamide] | > 10000 nM | > 10000 nM
O=C(Nc1ccsc1C(=O)NC1COc2ccccc2C1)c1ccc(O)c(Cl)c1 (stereo not drawn) [Example 6, 3-(3-chloro-4-hydroxybenzamido)-N-(chroman-3-yl)thiophene-2-carboxamide] | ≤ 100 nM | ≤ 1000 nM
COc1ccccc1CCNC(=O)c1sccc1NC(=O)c1ccncc1 [Example 10, N-(2-((2-methoxyphenethyl)carbamoyl)thiophen-3-yl)isonicotinamide] | > 10000 nM | > 10000 nM
COc1ccccc1CCNC(=O)c1sccc1NC(=O)c1ccc2[nH]nc(Cl)c2c1 [Example 28, 3-chloro-N-(2-((2-methoxyphenethyl)carbamoyl)thiophen-3-yl)-1H-indazole-5-carboxamide] | > 10000 nM | > 10000 nM
COc1ccccc1CCNC(=O)c1c(NC(=O)c2ccc(O)c(F)c2)sc(C)c1C [Example 16, 2-(3-fluoro-4-hydroxybenzamido)-N-(2-methoxyphenethyl)-4,5-dimethylthiophene-3-carboxamide] | ≤ 100 nM | ≤ 1000 nM
COc1ccccc1CCNC(=O)c1sccc1NC(=O)Cc1ccc(O)c(Cl)c1 [Example 20, 3-(2-(3-chloro-4-hydroxyphenyl)acetamido)-N-(2-methoxyphenethyl)thiophene-2-carboxamide] | 100 to 1000 nM | > 10000 nM
CC(C)(C)CCNC(=O)c1sccc1NC(=O)c1cc(F)c(O)c(F)c1 [Example 18, 3-(3,5-difluoro-4-hydroxybenzamido)-N-(3,3-dimethylbutyl)thiophene-2-carboxamide] | ≤ 100 nM | ≤ 1000 nM
COc1ccccc1CCNC(=O)c1sc2nccnc2c1NC(=O)c1ccc(O)c(Cl)c1 [Example 12, 7-(3-chloro-4-hydroxybenzamido)-N-(2-methoxyphenethyl)thieno[2,3-b]pyrazine-6-carboxamide] | 100 to 1000 nM | 1000 to 5000 nM
COc1ccccc1CCNC(=O)c1sc2ccccc2c1NC(=O)c1ccc(O)c(Cl)c1 [Example 31, 3-(3-chloro-4-hydroxybenzamido)-N-(2-methoxyphenethyl)benzo[b] thiophene-2-carboxamide] | 100 to 1000 nM | ≤ 1000 nM
CC(C)(C)CCNC(=O)c1sccc1NC(=O)c1ccc(O)c(Cl)c1 [Example 3, 3-(3-chloro-4-hydroxybenzamido)-N-(3,3-dimethylbutyl)thiophene-2-carboxamide] | ≤ 100 nM | ≤ 1000 nM
CC(C)CNC(=O)c1sccc1NC(=O)c1ccc(O)c(Cl)c1 [Example 2, 3-(3-chloro-4-hydroxybenzamido)-N-isobutylthiophene-2-carboxamide] | ≤ 100 nM | ≤ 1000 nM
COc1ccccc1CCNC(=O)c1sccc1NC(=O)c1ccc(O)c(C(F)(F)F)c1 [Example 33, 3-(4-hydroxy-3-(trifluoromethyl)benzamido)-N-(2-methoxyphenethyl)thiophene-2-carboxamide] | ≤ 100 nM | > 10000 nM
COc1ccccc1CCNC(=O)c1sccc1NC(=O)c1ccc(O)c(F)c1 [Example 30, 3-(3-fluoro-4-hydroxybenzamido)-N-(2-methoxyphenethyl)thiophene-2-carboxamide] | ≤ 100 nM | ≤ 1000 nM
COc1ccccc1CCNC(=O)c1sccc1NC(=O)c1ccc(S(=O)(=O)NC(=O)c2ccccc2)c(Cl)c1 [Example 24, 3-(4-(N-benzoylsulfamoyl)-3-chlorobenzamido)-N-(2-methoxyphenethyl)thiophene-2-carboxamide] | 1000 to 10000 nM | > 10000 nM
CC(C)(C)CCNC(=O)c1sc2cnccc2c1NC(=O)c1ccc(O)c(F)c1 [Example 19, N-(3,3-dimethylbutyl)-3-(3-fluoro-4-hydroxybenzamido)thieno[2,3-c]pyridine-2-carboxamide] | 100 to 1000 nM | > 10000 nM
COc1ccccc1CCNC(=O)c1sccc1NC(=O)c1ccc(OC(F)(F)C(=O)O)c(Cl)c1 [Example 25, 2-(2-chloro-4-((2-((2-methoxyphenethyl)carbamoyl)thiophen-3-yl)carbamoyl)phenoxy)-2,2-difluoroacetic acid] | 1000 to 10000 nM | > 10000 nM
COc1ccccc1CCNC(=O)c1sc(Cl)cc1NC(=O)c1ccc(O)c(Cl)c1 [Example 17, 5-chloro-3-(3-chloro-4-hydroxybenzamido)-N-(2-methoxyphenethyl)thiophene-2-carboxamide] | ≤ 100 nM | ≤ 1000 nM
COc1ccccc1CNC(=O)c1sccc1NC(=O)c1ccc(O)c(Cl)c1 [Example 8, 3-(3-chloro-4-hydroxybenzamido)-N-(2-methoxybenzyl)thiophene-2-carboxamide] | ≤ 100 nM | ≤ 1000 nM
COc1ccccc1CCNC(=O)c1c(NC(=O)c2ccc(O)c(Cl)c2)sc2c1CCCC2 [Example 14, 2-(3-chloro-4-hydroxybenzamido)-N-(2-methoxyphenethyl)-4,5,6,7-tetrahydrobenzo[b]thiophene-3-carboxamide] | 100 to 1000 nM | 1000 to 5000 nM
COc1ccccc1CCNC(=O)c1sccc1NC(=O)c1ccc(N2CCC(C(=O)O)C2)c(Cl)c1 (stereo not drawn) [Example 29, 1-(2-chloro-4-((2-((2-methoxyphenethyl)carbamoyl)thiophen-3-yl)carbamoyl)phenyl)pyrrolidine-3-carboxylic acid] | 1000 to 10000 nM | > 10000 nM
